# Values of other authors in patent publication US20090004306A1, “Composition for treatment of diabetes and maintaining healthy blood glucose levels” (priority 2007, published 2009).
# What was measured:
# [1] = Kim study
compound,measurement,setting,value
[Cr] [chromium],glucose levels and related variables,"people with glucose intolerance and type 1, type 2, gestational, and steroid-induced diabetes",improve glucose levels and related variables
O=C/C=C/c1ccccc1 [cinnamaledhyde],hypoglycemic properties / blood glucose level,[1],exhibit hypoglycemic properties
chromium picolinate,insulin sensitivity and glycemic control,"ample intakes, individuals and diabetics",promote insulin sensitivity in many individuals and improve glycemic control in some diabetics
